Measured values taken from ChEMBL document CHEMBL6153026, “Small-Molecule Modulators Targeting Coactivator-Associated Arginine Methyltransferase 1 (CARM1) as Therapeutic Agents for Cancer Treatment: Current Medicinal Chemistry Insights and Emerging Opportunities” (J Med Chem, 2025).

Experiments:
[1] = biological target: Protein arginine N-methyltransferase 6 (Homo sapiens, UniProt Q96LA8); assay: Inhibition of PRMT6 (unknown origin) by scintillation proximity assay
MCF7 = assay: Cytotoxicity against human MCF7 cells assessed as reduction in cell viability by MTS assay; format: functional, cell-based
[2] = biological target: T1, Histone-arginine methyltransferase CARM1 (Homo sapiens, UniProt Q86X55); assay: Inhibition of GST-tagged CARM1 (unknown origin) extracted form Escherichia coli BL21 (DE3) by MTase-Glo reagent based luminometer analysis
T1 sequence (Q86X55 whole entry): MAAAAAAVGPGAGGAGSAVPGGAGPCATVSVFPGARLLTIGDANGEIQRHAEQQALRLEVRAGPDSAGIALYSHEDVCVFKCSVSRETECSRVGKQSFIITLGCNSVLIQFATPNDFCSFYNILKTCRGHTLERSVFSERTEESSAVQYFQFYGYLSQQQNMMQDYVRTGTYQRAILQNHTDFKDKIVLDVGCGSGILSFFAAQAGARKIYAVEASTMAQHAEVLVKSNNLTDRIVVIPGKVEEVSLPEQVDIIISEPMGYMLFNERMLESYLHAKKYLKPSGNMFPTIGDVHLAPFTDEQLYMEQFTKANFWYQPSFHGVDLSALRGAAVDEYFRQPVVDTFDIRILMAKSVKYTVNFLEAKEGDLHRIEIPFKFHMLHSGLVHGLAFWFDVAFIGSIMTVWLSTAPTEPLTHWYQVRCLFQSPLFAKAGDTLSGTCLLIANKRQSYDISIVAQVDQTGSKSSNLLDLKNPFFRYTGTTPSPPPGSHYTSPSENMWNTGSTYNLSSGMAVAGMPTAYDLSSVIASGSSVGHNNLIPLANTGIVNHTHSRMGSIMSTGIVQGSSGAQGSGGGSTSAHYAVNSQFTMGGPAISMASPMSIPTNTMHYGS

MV4-11 = assay: Antiproliferative activity against human MV4-11 cells assessed as reduction in cell viability; format: functional, cell-based
[3] = biological target: T1, Histone-arginine methyltransferase CARM1; assay: Inhibition of CARM1 (unknown origin)
[4] = biological target: T1, Histone-arginine methyltransferase CARM1; assay: Inhibition of PRMT4 (unknown origin)
[5] = biological target: T1, Histone-arginine methyltransferase CARM1; assay: Inhibition of C-terminal His-tagged human CARM1 catalytic domain (135 to 479 residues) extracted from Escherichia coli BL21 CodonPlus (DE3)-RIL cells using (H3(3-31)) as substrate by enzymatic assay
[6] = Lipophilicity, logP of compound; format: physicochemical; details: octanol/water
[7] = biological target: Protein arginine N-methyltransferase 3 (Homo sapiens, UniProt O60678); assay: Inhibition of PRMT3 (unknown origin)
ASPC1 = assay: Antitumor activity in human ASPC1 cells xenografted in BALB/c nude mouse assessed as tumor growth inhibition at 100 mg/kg, relative to control; format: functional; design: scale not given: the % may be the effect or the level left
Homo sapiens = species: Homo sapiens; assay: Selectivity ratio of IC50 for human PRMT6 to IC50 for human PRMT4
[8] = biological target: Protein arginine N-methyltransferase 5 (Homo sapiens, UniProt O14744); assay: Inhibition of PRMT5 (unknown origin)
[9] = biological target: T1, Histone-arginine methyltransferase CARM1; assay: Inhibition of human N-terminal 6xHis-tagged CARM1 catalytic domain (140 to 480 residues) using histone H3 as substrate and SAM as cofactor by radiometric HotSpot assay
DU-145 = assay: Antiproliferative activity against human DU-145 cells assessed as reduction in cell viability incubated for 72 hrs by MTT assay; format: functional, cell-based; details: DU-145, 72 h

Sequence of Protein arginine N-methyltransferase 6 (Q96LA8 whole entry): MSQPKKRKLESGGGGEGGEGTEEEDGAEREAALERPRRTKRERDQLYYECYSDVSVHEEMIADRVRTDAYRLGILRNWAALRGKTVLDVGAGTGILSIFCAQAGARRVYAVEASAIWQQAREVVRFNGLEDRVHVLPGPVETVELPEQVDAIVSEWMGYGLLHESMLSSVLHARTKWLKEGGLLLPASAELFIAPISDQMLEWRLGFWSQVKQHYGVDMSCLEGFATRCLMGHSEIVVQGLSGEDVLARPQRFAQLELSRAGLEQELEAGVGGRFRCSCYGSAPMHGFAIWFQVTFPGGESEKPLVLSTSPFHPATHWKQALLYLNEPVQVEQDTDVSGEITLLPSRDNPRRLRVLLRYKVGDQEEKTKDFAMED
Sequence of Protein arginine N-methyltransferase 3 (O60678 whole entry): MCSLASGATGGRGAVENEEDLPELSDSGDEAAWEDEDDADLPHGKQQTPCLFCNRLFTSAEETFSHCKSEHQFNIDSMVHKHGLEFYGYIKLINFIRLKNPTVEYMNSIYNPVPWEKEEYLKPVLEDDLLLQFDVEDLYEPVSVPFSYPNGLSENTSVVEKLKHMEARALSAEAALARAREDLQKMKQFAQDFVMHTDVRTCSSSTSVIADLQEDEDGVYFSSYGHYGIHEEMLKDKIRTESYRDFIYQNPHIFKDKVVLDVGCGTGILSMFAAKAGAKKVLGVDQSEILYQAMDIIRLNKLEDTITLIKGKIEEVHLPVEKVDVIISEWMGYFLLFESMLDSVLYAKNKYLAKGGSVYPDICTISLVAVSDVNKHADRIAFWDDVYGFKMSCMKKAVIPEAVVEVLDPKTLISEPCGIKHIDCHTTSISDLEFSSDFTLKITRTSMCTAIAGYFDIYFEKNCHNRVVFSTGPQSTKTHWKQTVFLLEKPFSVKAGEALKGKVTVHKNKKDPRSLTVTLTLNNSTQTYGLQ
Sequence of Protein arginine N-methyltransferase 5 (O14744 whole entry, the tested form may be a part): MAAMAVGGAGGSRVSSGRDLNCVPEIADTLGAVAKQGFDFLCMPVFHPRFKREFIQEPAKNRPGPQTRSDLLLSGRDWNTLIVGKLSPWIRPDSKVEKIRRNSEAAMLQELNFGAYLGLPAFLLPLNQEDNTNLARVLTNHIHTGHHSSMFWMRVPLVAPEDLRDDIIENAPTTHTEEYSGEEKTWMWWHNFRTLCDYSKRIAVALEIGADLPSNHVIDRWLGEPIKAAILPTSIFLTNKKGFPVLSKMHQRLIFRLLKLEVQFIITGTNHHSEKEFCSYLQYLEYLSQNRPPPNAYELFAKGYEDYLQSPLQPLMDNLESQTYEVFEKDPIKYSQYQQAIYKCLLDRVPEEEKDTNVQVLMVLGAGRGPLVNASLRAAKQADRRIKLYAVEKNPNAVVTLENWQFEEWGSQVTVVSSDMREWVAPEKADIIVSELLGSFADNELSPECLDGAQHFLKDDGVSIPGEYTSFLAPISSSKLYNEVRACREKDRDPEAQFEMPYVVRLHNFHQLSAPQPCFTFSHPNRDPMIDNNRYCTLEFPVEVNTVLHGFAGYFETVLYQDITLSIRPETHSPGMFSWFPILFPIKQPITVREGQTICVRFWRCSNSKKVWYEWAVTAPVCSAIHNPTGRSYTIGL

NCCN1CCC(Cc2ccccc2)CC1
IC50 [1]: 300 nM

CNCC(=O)N1CCOc2c(O)cc(-c3cccc(Cl)c3)cc2C1
IC50 (MCF7): 8260 nM | IC50 [2]: 42200 nM

CNCCN(C)Cc1ccccc1OCc1cccc(Cl)c1Cl
IC50 (MV4-11): 4550 nM

C[C@H](N)C(=O)Nc1ccc2[nH]nc(-c3cccc(S(=O)(=O)N(C)C)c3)c2c1
IC50 [3]: 500 nM | IC50 [4]: 60 nM

C[S+](CC[C@H](N)C(=O)[O-])C[C@H]1O[C@@H](n2cnc3c(N)ncnc32)[C@H](O)[C@@H]1O (stereo partly drawn) [ADEMETIONINE]
IC50 [3]: 2.8 nM

Nc1ncnc2c1ncn2[C@H]1O[C@@H](CN(CCCNc2ccccn2)CC[C@H](N)C(=O)O)[C@H](O)[C@@H]1O
IC50 [5]: 1110 nM

CCOC(=O)c1cc(C(=O)NCc2ccccc2CCC(F)(F)F)n(-c2cccc(NC(=O)[C@H](C)N)c2)c1
IC50 [3]: 780 nM | logP [6]: 4.48

Nc1ncnc2c1ncn2[C@@H]1O[C@H](CSCC[C@H](N)C(=O)O)[C@@H](O)[C@H]1O [S-ADENOSYLHOMOCYSTEINE]
IC50 [7]: < 5 nM

CNC[C@@H](O)COc1ccc(Cl)c(-c2nc(-c3c(C)noc3C)c(C)c(N3CC4(CCN(C(=O)OC)CC4)C3)n2)c1
Activity (ASPC1): 52%

C[C@H](N)C(=O)Nc1ccc2c(c1)c(-c1cccc(S(=O)(=O)N(C)C)c1)cn2C
IC50 [3]: < 2 nM | Ratio IC50 (Homo sapiens): > 500

N=C(NCCCN(CCNC(=O)NCc1ccccc1)C[C@H]1O[C@@H](n2cnc3c(N)ncnc32)[C@H](O)[C@@H]1O)Nc1cccc(Br)c1
IC50 [3]: < 1 nM

NC(=O)[C@@H](N)CCCNCNCCCSC[C@H]1O[C@H](n2cnc3c(N)ncnc32)[C@H](O)[C@@H]1O
IC50 [8]: 0.42 nM

NCCCN(CCCNc1ccccn1)C[C@@H]1O[C@H](n2cnc3c(N)ncnc32)[C@@H](O)[C@H]1O
IC50 [5]: 1140 nM

COC1CCC(CCNC(=O)[C@H](CC[C@H](CNCc2ccccc2)C[C@H]2O[C@@H](n3cnc4c(N)ncnc43)[C@H](O)[C@@H]2O)NC(=O)CC(C)(C)C2=C(C)C(=O)C(C)=C(C)C2=O)CC1 (stereo partly drawn)
IC50 [9]: 43 nM

CNCCNCc1cccc(-c2nc(Nc3cccc(OCCCCCCC(=O)NO)c3)c(C)c(-c3ccnc4[nH]ccc34)n2)c1
IC50 (DU-145): < 1000 nM

OCCNCCNCc1ccccc1OCc1ccc(Cl)cc1Cl
IC50 [3]: 42400 nM

C[C@H](N)C(=O)Nc1ccc2[nH]cc(-c3cccc(S(C)(=O)=O)c3)c2c1
Ratio IC50 (Homo sapiens): 197

C[C@H](N)C(=O)NCc1cccc(-n2cc(C(F)(F)F)cc2C(=O)NCc2ccccc2)c1
IC50 [3]: 7230 nM | logP [6]: 3.8
